Tests used:
[1] = tested on: AL-7015-P2 leukemic cells; assay: Patient Derived Xenograft (PDX) model AL-7015 of acute lymphocytic leukemia; format: in vivo, NOD/SCID mice
Experimental: Tasquinimod was tested in a Patient Derived Xenograft (PDX) model AL-7015 provided by Crown Bioscience In. (www.crownbio.com). Cells derived from a patient with B-cell ALL were used. On Day 0, NOD/SCID mice were inoculated i.v. with 70×10^6 AL-7015-P2 leukemic cells per mouse. From day 1 to termination mice were treated with tasquinimod ad lib. in the drinking water at 30 mg/kg. Mice were terminated, as soon as any sign of morbidity was observed. The median survival time for the vehicle group was 51 days, while it was 99 days for the treatment group (p<0.0001) (FIG. 2). In the treatment group, the tumor burden remained close to zero for at least 10 weeks, long after the vehicle group had reached 100% tumor burden (FIG. 3).

[2] = tested on: AML; settings: 0.2 mg/kg body weight twice weekly for 2 years following ABMT for AML in remission; cited from earlier work
[3] = tested on: B-cell leukemia (BCL1) cells; settings: BALB/c mice inoculated with BCL1 cells; cited from earlier work

| SMILES | median survival time ([1]; 30 mg/kg ad lib. in drinking water from day 1 to termination, vehicle group 51 days, p<0.0001) [days] | tumor burden ([1]; 30 mg/kg in drinking water, for at least 10 weeks, long after the vehicle group had reached 100% tumor burden) | benefit over placebo regarding relapse [2] | benefit over placebo regarding survival [2] | impact on graft survival [3] | impact on graft versus leukemia (GVL) effects [3] |
| --- | --- | --- | --- | --- | --- | --- |
| COc1cccc2c1c(O)c(C(=O)N(C)c1ccc(C(F)(F)F)cc1)c(=O)n2C [tasquinimod, 4-hydroxy-5-methoxy-N,1-dimethyl-2-oxo-N-[4-(trifluoromethyl)phenyl]-1,2-dihydroquinoline-3-carboxamide] | 99 | close to zero |  |  |  |  |
| CN(C(=O)c1c(O)c2ccccc2n(C)c1=O)c1ccccc1 [Roquinimex, 4-hydroxy-N, 1-dimethyl-2-oxo-N-phenyl-1,2-dihydroquinoline-3-carboxamide] |  |  | no benefit | no benefit | no impact | no impact |

Reference: patent US10300053B2, “Quinoline carboxamides for use in the treatment of leukemia” (Active Biotech AB, priority 2014, dated 2019)
